Test [1] concerns the target T1, CXCR4 (Homo sapiens, UniProt P61073). In words: CXCR4 antagonistic activity: inhibition of Ca2+ movement induced by SDF-1a in CXCR4 transfected CHO cells (Fura-2). Format: cell-based. The note with it: for CXCR4 antagonistic activity (in words): comment in the text on Tables 1 to 3. On the procedure:
Various aromatic compounds each having a dipicolylamine-zinc complex were prepared, and their CXCR4 antagonistic effects were examined using the following method.
A CXCR4 transfected Chinese hamster ovary(CHO) cells (3×10^4 cell/100 μL/well) were plated in each well of a flat-bottomed micro-titer tray. The samples were incubated in a CO2 incubator at 37° C., and the cells were loaded in Ham F-12 buffer(80 μL/well) for an hour at 37° C., together with 5 μM Fura-2AM (Dojindo, Kumatomo, Japan), 2.5 mM Probenecid (Sigma) and 20 mM HEPES(pH7.4).
Thereafter, the cells were washed twice with Hank's balanced salt solution (100 μL×2), and placed in a spectrofluorimeter (96 well Fluorescence Drug Screening System, Hamamatsu Photonics K.K. Japan). 30 seconds after the measurement started, the cells were incubated in Hank's balanced salt solution with plural test compounds of different concentrations. After 3 minutes, recombinant SDF-1a (PreproTech, 30 nM/[…]/well) was added.
Changes of the CXCR4 transfect CHO cell system loaded with Fura2-A[Ca^2+], were recorded in real time with a modification method of Fura-2. The CXCR4 antagonistic effect was measured based on the inhibition of Ca^2+ movement induced by the stimulation of SDF-1a via CXCR4 (IC50).

For test [2], the target named is T1, CXCR4. In words: CXCR4 binding activity: inhibition of 125I-SDF-1a bonding to CXCR4 transfected CHO cells.
Procedure: A CXCR4 transfected CHO cells suspended in Ham's F-12 buffer (0.5% bovine serum albumin, 20 mM HEPES buffer) were placed in a silicon-coated test tube (5×10^5 cells/120 μL/well). Cold SDF-1 a (Final concentration 0.1 μM, 15 μL/well) and a test object having one of various concentrations (15 μL/well) was added to the test tube. Thereafter, ^125I-SDF-1a (PerkinElmer, final concentration=0.1 nM, 15 μL/well) was added. The sample was incubated for an hour at 0° C., mixed with oil (dibutyl phthalate: olive oil=4:1(v/v), 500 μL/well), then centrifuged for 2 minutes at 14,000 rpm. After removing the water layer and the organic layer, the bottom part was separated from the test tube and was placed in a radioimmunoassay counting tube. Thereafter, count per minute (CPM) was measured with a γ-counter.
Inhibition rate (%)=(Et−Ea)/(Et−Ec)×100
A further test deals with HIV-1IIIB. The note with it: read-out: EC50 (anti-HIV-1 activity); HIV-1IIIB infected MT-4 cells, virus number/cells number=0.01, five days, MTT viable cell count.

T1 sequence (P61073 whole entry): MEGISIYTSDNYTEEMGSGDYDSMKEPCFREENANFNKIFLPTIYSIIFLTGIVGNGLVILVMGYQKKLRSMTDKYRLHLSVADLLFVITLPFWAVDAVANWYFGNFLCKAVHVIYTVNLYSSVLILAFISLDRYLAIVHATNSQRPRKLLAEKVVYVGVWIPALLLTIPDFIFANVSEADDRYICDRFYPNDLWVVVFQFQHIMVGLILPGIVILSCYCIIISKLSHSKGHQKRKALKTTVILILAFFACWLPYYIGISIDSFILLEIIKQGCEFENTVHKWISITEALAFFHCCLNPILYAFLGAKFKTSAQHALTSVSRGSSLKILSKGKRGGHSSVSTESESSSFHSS
Procedure for HIV-1IIIB: The method carries out measurement of anti-HIV-1 activity based on the inhibition effect with respect to cellular degeneration induced in the MT-4 cells by HIV-1.
MT-4 and MOLT-4 cells, human T-cell systems, are incubated in a RPMI1640 culture medium containing 10% heat-inactivated fetal bovine serum, 100 IU/mL of penicillin, and 100 mg/mL of streptomycin.
HIV-1IIIB, an X4-HIV-1-strain, was used as virus. The virus was obtained from a culture solution supernatant of MOLT-4/HIV-1IIIB cells persistently infected with HIV-1, and was kept at −80° C. before use.
Plural test compounds of different concentrations were individually added to HIV-1 infected MT-4 cells (virus number/cells number=0.01), and the samples were plated in the wells of a flat-bottomed micro-titer tray (1.5×10^4 cells/well). The samples were incubated in a CO2 incubator for five days at 37° C. A viable cell count was carried out (EC50) with an MTT method.

With “9,10-bis[(2,2′-dipicolylamino) methyl]anthracene/Zn complex [Example Compound 9]”, the “CXCR4 antagonistic activity (in words)” value at CXCR4 [1] was “high activity”. The compound further came in with an IC50 at CXCR4 [1] (inhibition of Ca2+ movement induced by SDF-1a (30 nM) via CXCR4, CXCR4 transfected CHO cells) of 240 nM.
Regarding `c1ccc(CN(Cc2ccc(CN(Cc3ccccn3)Cc3ccccn3)cc2)Cc2ccccn2)nc1` [Comparative Example Compound A, reference compound], the concentration for half-maximal inhibition (IC50) against CXCR4 [1] is greater than 10000 nM.
The same measure, in the same setting: the figure for `c1ccc(CN(Cc2ccc(-c3ccc(CN(Cc4ccccn4)Cc4ccccn4)cc3)cc2)Cc2ccccn2)nc1` [Comparative Example Compound B, reference compound] is greater than 10000 nM; for `c1ccc(CN(Cc2cccc(-c3cccc(CN(Cc4ccccn4)Cc4ccccn4)c3)c2)Cc2ccccn2)nc1` [Example Compound 3] it is 350 nM; for `c1ccc(CN(Cc2ccnc(-c3cc(CN(Cc4ccccn4)Cc4ccccn4)ccn3)c2)Cc2ccccn2)nc1` [Example Compound 5] it is 460 nM.
As for `c1ccc(CN(Cc2ccccn2)Cc2c3ccccc3cc3ccccc23)nc1` [Example Compound 8], on CXCR4 [1], the half-maximal inhibitory concentration (IC50) worked out at 770 nM.
Regarding `C[C@H](NC(=O)[C@H](CCCNC(=N)N)NC(=O)c1ccc(CNCc2ccccn2)cc1)c1cccc2ccccc12` [Reference Example Compound III, reference compound], the IC50 at CXCR4 [1] was 240 nM; on CXCR4 [2], 34 nM.
Take “bis(2,2′-dipicolylamino)-p-xylene/zinc complex [Example Compound 1]”: in the test with HIV-1IIIB, the concentration giving a half-maximal response (EC50) was found to be 7100 nM. In addition, the “CXCR4 antagonistic activity (in words)” value at CXCR4 [1] is “strong CXCR4 antagonistic activity”. Further, the “CXCR4 bonding activity (in words)” value on CXCR4 [2] (comment in the text on Table 4) is listed as “comparative to that of Reference Example Compound III (KRH-1636)”.

Source of the values: patent publication US20090036416A1, “Novel CXCR4 Antagonist and Use Thereof” (Kyoto University, priority 2005, published 2009).
